Inhibition data for 29 molecules are collected here from patent publication US20240287052A1, “NOVEL OXAZOLE DERIVATIVE AND PHARMACEUTICAL COMPOSITION FOR PREVENTING OR TREATING ALLERGIC DISEASES COMPRISING THE SAME” (AZCURIS CO., LTD., priority 2021, published 2024).

Each structure is given as a SMILES string. Read-outs that look alike come from different tables or passages of the source.

This test concerns the target T1, IL33 and ST2 binding (Homo sapiens, UniProt O95760).
T1 sequence (O95760 112-270 limits assumed): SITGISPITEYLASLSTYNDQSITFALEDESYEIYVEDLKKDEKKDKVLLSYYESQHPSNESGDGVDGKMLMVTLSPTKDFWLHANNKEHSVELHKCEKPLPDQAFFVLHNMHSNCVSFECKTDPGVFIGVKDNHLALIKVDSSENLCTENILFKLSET
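Also: plate ELISA with coated Flag-tagged human IL-33 and His-tagged human ST2, bound ST2 detected by anti-His HRP and TMB absorbance at 450 nm, 2 h compound incubation.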

Experimental: 100 nM of Flag tagged IL-33 human recombinant protein was prepared in 1× coating buffer (Biolegend) and placed in a 96 well microplate (Coming) using a Multichannel pipette (Gilson) and coated for at least 12 hours at 4° C.
After washing three times with PBST (1×PBS (Welgene), 1% Tween 20 (sigma)), it was reacted with 1% BSA (Bovogen) blocking buffer for 1 hour at room temperature.
Samples containing 200 nM of His-tagged ST2 human recombinant protein and 60 μM or 200 μM Example synthetic compounds were prepared, added in equal volumes, and reacted for at least 2 hours at room temperature.
After washing three times with PBST (1×PBS (Welgene), 1% Tween 20 (sigma)), anti-His HRP (BioLegend) antibody was diluted 5000:1 and reacted for at least 1 hour at room temperature.
After washing three times with PBST (1×PBS (Welgene), 1% Tween 20 (sigma)), TMB substrate solution (Thermo) was added and reacted for more than 5 minutes. The reaction was stopped by adding 1 N HCl (Samchun) and the absorbance value was obtained at 450 nm after orbital shaking for 5 s with a Microplate reader (Tecan, Spark®).
The results derived from the program linked to the microplate reader were analyzed using an Excel program. IL33-ST2 binding rate (binding %) was calculated by averaging the three values obtained in triplicate, subtracting the positive control value, and converting the negative control value to 100%. The inhibition % value of each compound was obtained by subtracting the IL33-ST2 binding % from 100%, and the error range of triplicate was also obtained and reflected in the inhibition graph of the compound.

As for `CN1CCN(CCNC(=O)c2coc(-c3ccc(C(F)(F)F)cc3)n2)CC1` [Compound 115, N-(2-(4-methylpiperazin-1-yl)ethyl)-2-(4-(trifluoromethyl)phenyl)oxazole-4-carboxamide], the inhibition (usually the relative decrease from the control value, in per cent) is -22% (30 µM) and -17% (100 µM).
`CN(C)CCN1CCN(C(=O)c2coc(-c3ccc(C(F)(F)F)cc3)n2)CC1` [Compound 116, (4-(2-(dimethylamino)ethyl)piperazin-1-yl)(2-(4-(trifluoromethyl)phenyl)oxazol-4-yl)methanone]: the inhibition came to 13% (30 µM) and 26% (100 µM).
The like results for `CN(C)CCNC(=O)c1nc(-c2ccccc2C(F)(F)F)oc1-c1ccccc1` [Compound 117, N-(2-(Dimethylamino)ethyl)-5-phenyl-2-(2-(trifluoromethyl)phenyl)oxazole-4-carboxamide] were, in that order, 4% and 10%.
Taken in the same sequence, the figures for `CN1CCN(CCNC(=O)c2nc(-c3ccccc3C(F)(F)F)oc2-c2ccccc2)CC1` [Compound 118, N-(2-(4-Methylpiperazin-1-yl)ethyl)-5-phenyl-2-(2-(trifluoromethyl)phenyl)oxazole-4-carboxamide] were 24% and 36%.
The like results for `CN(C)CCNC(=O)c1nc(-c2ccccc2C(F)(F)F)oc1-c1ccccc1[N+](=O)[O-]` [Compound 119, N-(2-(Dimethylamino)ethyl)-5-(2-nitrophenyl)-2-(2-(trifluoromethyl)phenyl)oxazole-4-carboxamide] were, in that order, -6% and -14%.
In the case of `CN1CCN(CCNC(=O)c2nc(-c3ccccc3C(F)(F)F)oc2-c2ccccc2[N+](=O)[O-])CC1` [Compound 120, N-(2-(4-Methylpiperazin-1-yl)ethyl)-5-(2-nitrophenyl)-2-(2-(trifluoromethyl)phenyl)oxazole-4-carboxamide], the inhibition (30 µM) is 7% and the inhibition (100 µM) is 40%.
Take `CN(C)CCNC(=O)c1nc(-c2cccc(C(F)(F)F)c2)oc1-c1ccccc1` [Compound 121, N-(2-(Dimethylamino)ethyl)-5-phenyl-2-(3-(trifluoromethyl)phenyl)oxazole-4-carboxamide]: the inhibition by setting is: (30 µM) -20%; (100 µM) -18%.
As to `CN1CCN(CCNC(=O)c2nc(-c3cccc(C(F)(F)F)c3)oc2-c2ccccc2)CC1` [Compound 122, N-(2-(4-Methylpiperazin-1-yl)ethyl)-5-phenyl-2-(3-(trifluoromethyl)phenyl)oxazole-4-carboxamide], the inhibition reads like this: (30 µM) -18%; (100 µM) 0%.
Turning to `CN(C)CCNC(=O)c1nc(-c2cccc(C(F)(F)F)c2)oc1-c1ccccc1[N+](=O)[O-]` [Compound 123, N-(2-(Dimethylamino)ethyl)-5-(2-nitrophenyl)-2-(3-(trifluoromethyl)phenyl)oxazole-4-carboxamide], the inhibition runs as follows: (30 µM) -22%; (100 µM) 39%.
In the case of `CN1CCN(CCNC(=O)c2nc(-c3cccc(C(F)(F)F)c3)oc2-c2ccccc2[N+](=O)[O-])CC1` [Compound 124, N-(2-(4-Methylpiperazin-1-yl)ethyl)-5-(2-nitrophenyl)-2-(3-(trifluoromethyl)phenyl)oxazole-4-carboxamide], the inhibition by setting is: (30 µM) 50%; (100 µM) 31%.
As to `CN(C)CCN1CCN(C(=O)c2nc(-c3cccc(C(F)(F)F)c3)oc2-c2ccccc2[N+](=O)[O-])CC1` [Compound 125, (4-(2-(Dimethylamino)ethyl)piperazin-1-yl)(5-(2-nitrophenyl)-2-(3-(trifluoromethyl)phenyl)oxazol-4-yl)methanone], the inhibition stood at 20% (30 µM) and 24% (100 µM).
As for `CN(C)CCNC(=O)c1nc(-c2ccc(C(F)(F)F)cc2)oc1-c1ccccc1` [Compound 126, N-(2-(Dimethylamino)ethyl)-5-phenyl-2-(4-(trifluoromethyl)phenyl)oxazole-4-carboxamide], the inhibition is -14% (30 µM) and 6% (100 µM).
Consider `CN1CCN(CCNC(=O)c2nc(-c3ccc(C(F)(F)F)cc3)oc2-c2ccccc2)CC1` [Compound 127, N-(2-(4-Methylpiperazin-1-yl)ethyl)-5-phenyl-2-(4-(trifluoromethyl)phenyl)oxazole-4-carboxamide], for which the inhibition reads like this: (30 µM) -24%; (100 µM) -5%.
With `CN(C)CCN1CCN(C(=O)c2nc(-c3ccc(C(F)(F)F)cc3)oc2-c2ccccc2)CC1` [Compound 129], the inhibition by setting is: (30 µM) 45%; (100 µM) 79%.
As for `O=C(NCCc1ccc(O)cc1)c1nc(-c2ccc(C(F)(F)F)cc2)oc1-c1ccccc1` [Compound 130, N-(4-Hydroxyphenethyl)-5-phenyl-2-(4-(trifluoromethyl)phenyl)oxazole-4-carboxamide], the inhibition (30 µM) is 11% and the inhibition (100 µM) was 37%.
Take `CN(C)CCNC(=O)c1nc(-c2ccc(C(F)(F)F)cc2)oc1-c1ccccc1[N+](=O)[O-]` [Compound 131, N-(2-(Dimethylamino)ethyl)-5-(2-nitrophenyl)-2-(4-(trifluoromethyl)phenyl)oxazole-4-carboxamide]: the inhibition (30 µM) turned out to be 91% and the inhibition (100 µM) was 92%.
For `O=C(c1nc(-c2ccc(C(F)(F)F)cc2)oc1-c1ccccc1[N+](=O)[O-])N1CCCC1` [Compound 138, (5-(2-Nitrophenyl)-2-(4-(trifluoromethyl)phenyl)oxazol-4-yl)(pyrrolidin-1-yl)methanone], the inhibition by setting is: (30 µM) 6%; (100 µM) 11%.
Consider `O=C(NCCN1CCCC1)c1nc(-c2ccc(C(F)(F)F)cc2)oc1-c1ccccc1[N+](=O)[O-]` [Compound 139, 5-(2-Nitrophenyl)-N-(2-(pyrrolidin-1-yl)ethyl)-2-(4-(trifluoromethyl)phenyl)oxazole-4-carboxamide], for which the inhibition reads like this: (30 µM) 4%; (100 µM) 13%.
`O=C(NCCCN1CCCC1)c1nc(-c2ccc(C(F)(F)F)cc2)oc1-c1ccccc1[N+](=O)[O-]` [Compound 140, 5-(2-Nitrophenyl)-N-(3-(pyrrolidin-1-yl)propyl)-2-(4-(trifluoromethyl)phenyl)oxazole-4-carboxamide]: the inhibition (30 µM) was 10% and the inhibition (100 µM) was 15%.
`O=C(NCc1ccncc1)c1nc(-c2ccc(C(F)(F)F)cc2)oc1-c1ccccc1[N+](=O)[O-]` [Compound 141, 5-(2-Nitrophenyl)-N-(pyridin-4-ylmethyl)-2-(4-(trifluoromethyl)phenyl)oxazole-4-carboxamide]: the inhibition is -11% (30 µM) and -3% (100 µM).
On to `O=C(NCc1cccnc1)c1nc(-c2ccc(C(F)(F)F)cc2)oc1-c1ccccc1[N+](=O)[O-]` [Compound 142, 5-(2-Nitrophenyl)-N-(pyridin-3-ylmethyl)-2-(4-(trifluoromethyl)phenyl)oxazole-4-carboxamide], for which the inhibition by setting is: (30 µM) 6%; (100 µM) 8%.
With `O=C(Nc1ccccn1)c1nc(-c2ccc(C(F)(F)F)cc2)oc1-c1ccccc1[N+](=O)[O-]` [Compound 143, 5-(2-Nitrophenyl)-N-(pyridin-2-yl)-2-(4-(trifluoromethyl)phenyl)oxazole-4-carboxamide], the inhibition (30 µM) was determined as 9% and the inhibition (100 µM) came out at 8%.
Taken in the same sequence, the figures for `O=C(c1nc(-c2ccc(C(F)(F)F)cc2)oc1-c1ccccc1[N+](=O)[O-])N1CCCCC1` [Compound 144, (5-(2-Nitrophenyl)-2-(4-(trifluoromethyl)phenyl)oxazol-4-yl)(piperidin-1-yl)methanone] were -19% and -34%.
Regarding `O=C(c1nc(-c2ccc(C(F)(F)F)cc2)oc1-c1ccccc1[N+](=O)[O-])N1CCC(c2ccccc2)CC1` [Compound 145, (5-(2-Nitrophenyl)-2-(4-(trifluoromethyl)phenyl)oxazol-4-yl)(4-phenylpiperidin-1-yl)methanone], the inhibition worked out at 3% (30 µM) and 11% (100 µM).
As for `O=C(c1nc(-c2ccc(C(F)(F)F)cc2)oc1-c1ccccc1[N+](=O)[O-])N1CCN(C2CC2)CC1` [Compound 146, (4-Cyclopropylpiperazin-1-yl)(5-(2-nitrophenyl)-2-(4-(trifluoromethyl)phenyl)oxazol-4-yl)methanone], the inhibition was -35% (30 µM) and -57% (100 µM).
The like results for `CC(=O)c1ccc(NC(=O)c2nc(-c3ccc(C(F)(F)F)cc3)oc2-c2ccccc2[N+](=O)[O-])cc1` [Compound 147, N-(4-Acetylphenyl)-5-(2-nitrophenyl)-2-(4-(trifluoromethyl)phenyl)oxazole-4-carboxamide] were, in that order, 1% and 4%.
On to `O=C(NCc1ccc(C(F)(F)F)cc1)c1nc(-c2ccc(C(F)(F)F)cc2)oc1-c1ccccc1[N+](=O)[O-]` [Compound 148, 5-(2-Nitrophenyl)-N-(4-(trifluoromethyl)benzyl)-2-(4-(trifluoromethyl)phenyl)oxazole-4-carboxamide], for which the inhibition was found to be 12% (30 µM) and 19% (100 µM).
With `O=C(NCCc1ccc(F)cc1)c1nc(-c2ccc(C(F)(F)F)cc2)oc1-c1ccccc1[N+](=O)[O-]` [Compound 149, N-(4-Fluorophenethyl)-5-(2-nitrophenyl)-2-(4-(trifluoromethyl)phenyl)oxazole-4-carboxamide], the inhibition runs as follows: (30 µM) 20%; (100 µM) 19%.
On to `CN(C)CCCN1CCN(C(=O)c2nc(-c3ccc(C(F)(F)F)cc3)oc2-c2ccccc2[N+](=O)[O-])CC1` [Compound 150, (4-(3-(Dimethylamino)propyl)piperazin-1-yl)(5-(2-nitrophenyl)-2-(4-(trifluoromethyl)phenyl)oxazol-4-yl)methanone], for which the inhibition is, setting by setting: (30 µM) -18%; (100 µM) 7%.
